Assay results as given in patent US4536505A, “Certain N-(pyridyl) indoles” (Ciba-Geigy Corporation, priority 1983, dated 1985).

Assays:
bleeding time in the rat = assay type: in vivo; conditions: about 1.0 mg/kg p.o.
Description: Indicative of the utility in thromboembolism, compounds of this invention also prolong bleeding time in the rat.

[1] = target: T1, prostaglandin cyclooxygenase (Ovis aries, UniProt P05979); assay: in-vitro effect on prostaglandin cyclooxygenase; assay type: biochemical, sheep (seminal vesicle microsomes); conditions: 50% reduction in the amount of PGE2 synthesized; read-out: IC50 for cyclooxygenase inhibition
T1 construct: Lyophilized sheep seminal vesicle microsomes are utilized as the prostaglandin-synthesizing enzyme preparation; from tissue; host or cells: lyophilized sheep seminal vesicle microsomes
T1 sequence (P05979 25-600): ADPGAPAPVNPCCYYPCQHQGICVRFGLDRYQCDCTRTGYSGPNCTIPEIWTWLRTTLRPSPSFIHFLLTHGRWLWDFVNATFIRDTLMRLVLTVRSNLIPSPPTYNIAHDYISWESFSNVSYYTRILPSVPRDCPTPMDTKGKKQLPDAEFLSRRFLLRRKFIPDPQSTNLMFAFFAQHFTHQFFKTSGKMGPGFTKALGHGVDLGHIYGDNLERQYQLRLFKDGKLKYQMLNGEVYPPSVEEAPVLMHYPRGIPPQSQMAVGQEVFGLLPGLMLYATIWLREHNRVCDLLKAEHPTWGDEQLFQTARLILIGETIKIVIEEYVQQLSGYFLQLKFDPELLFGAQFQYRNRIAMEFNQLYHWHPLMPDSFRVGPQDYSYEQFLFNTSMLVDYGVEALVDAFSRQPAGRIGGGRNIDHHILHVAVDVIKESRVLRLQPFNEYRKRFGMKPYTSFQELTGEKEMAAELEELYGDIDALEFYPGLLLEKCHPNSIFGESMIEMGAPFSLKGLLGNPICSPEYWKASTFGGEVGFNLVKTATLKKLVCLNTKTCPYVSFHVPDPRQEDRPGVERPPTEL
Experimental: The in-vitro effect on prostaglandin cyclooxygenase is measured by a modification of the method of Takeguchi et al. described in Biochemistry 10, 2372 (1971); the testing procedure is as follows:
Lyophilized sheep seminal vesicle microsomes are utilized as the prostaglandin-synthesizing enzyme preparation. The conversion of ^14 C-arachidonic acid to PGE2 is measured. Test compounds (dissolved in buffer, or if necessary, in a small amount of ethanol) are added to the incubation mixture. The prostaglandins are extracted and separated by thin-layer chromatography; the plates are scanned, the radioactive zones corresponding to PGE2 are transferred to liquid scintillation vials and counted for radioactivity. IC50 values for inhibition are determined graphically as the concentration of test compound causing a 50% reduction in the amount of PGE2 synthesized.

thromboxane synthetase = target: T2, thromboxane synthetase (Homo sapiens, UniProt P24557); assay: in vitro inhibition of the thromboxane synthetase enzyme; assay type: biochemical, human (lysed human platelets); conditions: 30 minutes incubation; ratio T×B2/PGF2 α+β reduced to 50% of control
T2 construct: crude microsomal preparation of thromboxane synthetase from lysed human platelets; from tissue; host or cells: lysed human platelets, crude microsomal preparation
T2 sequence (P24557 1-533): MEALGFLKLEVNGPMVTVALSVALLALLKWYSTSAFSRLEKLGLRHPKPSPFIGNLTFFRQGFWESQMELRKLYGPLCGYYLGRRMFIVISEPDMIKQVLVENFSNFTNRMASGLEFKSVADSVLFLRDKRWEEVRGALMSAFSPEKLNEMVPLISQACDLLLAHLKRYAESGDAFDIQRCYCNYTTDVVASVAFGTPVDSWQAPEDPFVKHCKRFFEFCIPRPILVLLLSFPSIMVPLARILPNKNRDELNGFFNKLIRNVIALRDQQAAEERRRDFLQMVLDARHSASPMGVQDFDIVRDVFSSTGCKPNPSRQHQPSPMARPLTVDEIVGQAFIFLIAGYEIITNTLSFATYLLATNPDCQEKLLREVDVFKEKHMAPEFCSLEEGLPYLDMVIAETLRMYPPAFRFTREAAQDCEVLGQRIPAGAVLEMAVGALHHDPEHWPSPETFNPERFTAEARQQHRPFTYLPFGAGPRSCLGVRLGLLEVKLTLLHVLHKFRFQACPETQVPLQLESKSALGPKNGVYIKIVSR
Experimental: Res. Comm. 74, 1432 (1977); the testing procedure is as follows: ^14 C-Arachidonic acid is incubated with an enzyme consisting of solubilized and partially purified prostaglandin cyclo-oxygenase from sheep seminal vesicles and a crude microsomal preparation of thromboxane synthetase from lysed human platelets. The test compound (dissolved in buffer, or if necessary, in a small amount of ethanol) is added to the incubation medium. At the end of the incubation period (30 minutes), Prostaglandin E2 (PGE2) is reduced to a mixture of Prostaglandin F2 α and F2 β (PGF2 α+β) by addition of sodium borohydride. The radioactive products and excess substrate are extracted into ethyl acetate; the extract is evaporated to dryness; the residue is dissolved in acetone, spotted on thin-layer plates and chromatographed in the solvent system toluene:acetone:glacial acetic acid (100 volumes:100 volumes:3 volumes). The radioactive zones are located; those corresponding to Thromboxane B2 (T×B2) and PGF2 α+β are transferred to liquid scintillation vials and counted. The ratio of counts for T×B2 /PGF2 α+β is calculated for each concentration of test compound and IC50 values are determined graphically as the concentration of test compound at which the ratio of T×B2 /PGF2 α+β is reduced to 50% of the control value.

prostacyclin = assay: in vivo plasma level of prostacyclin (6-keto-PGF1 α) in rats after ionophore A23187; conditions: rat, oral dose of 0.04 mg/kg or lower
Experimental: (§1) The inhibition of the synthesis and the reduction of plasma levels of thromboxane is determined in vivo on administration to rats in the following manner (as adapted from the procedures described by Tai et al. in Anal. Biochem. 87:343, 1978 and by Salmon in Prostaglandins 15:383, 1978):
(§2) Rats are dosed with vehicle or test drug and injected intravenously with ionophore A23187 (0.5 mg/kg) two hours later. Blood is collected for analysis 2 minutes after the ionophore injection. A single aliquot of each plasma sample is assayed for thromboxane B2 and another aliquot for 6-keto-PGF1 α, the stable metabolites of thromboxane A2 and prostacyclin (PGI2) respectively, by radioimmunoassay.

thromboxane B2 = assay: in vivo reduction of plasma levels of thromboxane (thromboxane B2) in rats after ionophore A23187; conditions: rat, oral dose of 0.04 mg/kg or lower
Experimental: as §1, §2

lipoxygenase = target: T3, lipoxygenase (Cavia porcellus, UniProt A0A286X958); assay: lipoxygenase inhibition in guinea pig peritoneal neutrophils; assay type: cell-based; conditions: 14C-arachidonic acid (4 μM), A-23187 (2 μM), 37° C.; LTB4 and 5-HETE
T3 construct: Guinea pig peritoneal neutrophils; endogenous in cells; host or cells: guinea pig peritoneal neutrophils (elicited with sodium caseinate)
T3 sequence (A0A286X958 1-674): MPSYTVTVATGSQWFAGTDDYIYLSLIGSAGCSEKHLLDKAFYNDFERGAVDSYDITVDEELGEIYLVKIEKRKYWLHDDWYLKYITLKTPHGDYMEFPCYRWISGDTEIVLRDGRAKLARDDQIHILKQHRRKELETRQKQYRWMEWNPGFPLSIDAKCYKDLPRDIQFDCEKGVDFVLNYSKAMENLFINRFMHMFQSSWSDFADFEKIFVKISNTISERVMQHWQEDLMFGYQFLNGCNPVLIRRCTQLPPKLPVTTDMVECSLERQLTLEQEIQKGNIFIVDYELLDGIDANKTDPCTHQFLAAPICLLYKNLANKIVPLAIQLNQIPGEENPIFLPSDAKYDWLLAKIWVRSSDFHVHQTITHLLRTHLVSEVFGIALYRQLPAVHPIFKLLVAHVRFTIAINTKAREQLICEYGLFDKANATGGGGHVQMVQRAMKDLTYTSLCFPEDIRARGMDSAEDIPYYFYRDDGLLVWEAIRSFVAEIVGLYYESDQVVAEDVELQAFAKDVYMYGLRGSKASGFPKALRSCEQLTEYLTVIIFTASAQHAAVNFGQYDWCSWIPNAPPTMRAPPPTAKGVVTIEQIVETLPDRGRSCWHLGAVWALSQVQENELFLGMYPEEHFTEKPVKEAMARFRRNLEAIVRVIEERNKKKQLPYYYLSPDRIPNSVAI
Experimental: Guinea pig peritoneal neutrophils (elicited by an i.p. injection of sodium caseinate 17 hours prior to harvesting) are preincubated with indomethacin (1 μM) and test drugs for 5 minutes at 37° C. ^14 C-arachidonic acid (4 μM) and calcium ionophore A-23187 (2 μM) are added and the samples are incubated for another 5 minutes at 37° C. The reaction is terminated by the addition of 1N HCl and the products are extracted with ethyl acetate and separated by thin-layer chromatography; the plates are scanned and the radioactive zones corresponding to LTB4 and 5-HETE are scraped off, transferred to liquid scintillation vials and counted for radioactivity.

| SMILES | prolongation of bleeding time (bleeding time in the rat) | IC50 [1] [µM] | IC50 (thromboxane synthetase) [µM] | increase in the plasma level of prostacyclin (prostacyclin) | decrease of plasma concentration of thromboxane B2 (thromboxane B2) | IC50 (lipoxygenase) [µM] |
| --- | --- | --- | --- | --- | --- | --- |
| O=C(O)CCCCc1cn(-c2cccnc2)c2ccccc12 [3-(4-carboxybutyl)-N-(3-pyridyl)indole] | prolongs bleeding time | > 1000 | ~0.0011 | approximately 5 fold | over 50% | – |
| O=C(O)CCCCc1cn(-c2cccnc2)c2ccc(Cl)cc12 [3-(4-carboxybutyl)-5-chloro-N-(3-pyridyl)indole] | – | – | ~0.0026 | – | – | ~30 |
| O=C(O)CCCCCc1cn(-c2cccnc2)c2ccccc12 [3-(5-carboxypentyl)-N-(3-pyridyl)indole] | – | – | ~0.004 | – | – | – |
